Data taken from US8501813B2, “γ-secretase inhibitor” (Kabushiki Kaisha Yakult Honsha, priority 2007, dated 2013).
Read-outs that look alike come from different tables or passages of the source.

Assays:
C99 cells = assay: Cytotoxicity on C99 cells, cell viability by Cell Counting Kit-8; format: cell-based, human; settings: 24 h
Procedure: The cytotoxicity of four test substances (TLVM-5, TLVM-7, TLVM-8, and TLVM-9) on the C99 cells was measured using a method shown below.
(§1) In the present test, a medium used for the C99 cells was 500 mL of a Dulbecco's Modified Eagle's Medium (DMEM, Sigma-Aldrich Corp.) supplemented with 55 ml of fetal bovine serum (Biosource), 5.5 ml of MEM non-essential amino acids (Gibco), and 5.5 ml of penicillin/streptomycin (Gibco).
The C99 cells were suspended at a concentration of 0.75×10^5 cells/ml in the medium. The suspension was added at a concentration of 100 μL (0.75×10^4 cells)/well to a 96-well collagen plate (Akita Sumitomo Bakelite Co., Ltd.) and cultured for 2 days. Then, the medium (corresponding to 50 μL/well) in the wells was removed, and a fresh medium was added thereto at a concentration of 30 μL/well. […] Then, the cell viability was measured using Cell Counting Kit-8 (Dojindo Laboratories).

γ-secretase = γ-secretase (Homo sapiens, UniProt P49768); assay: Aβ secretion by C99 cells (HEK293 stably expressing APP-C99), γ-secretase inhibitory effect, Aβ ELISA of culture supernatant; format: cell-based; settings: for activity at 0.3 µM / activity at 1 µM / activity at 3 µM / activity at 10 µM / activity at 0.03 µM / activity at 0.1 µM: HEK293, 24 h; for activity at 0.3 µM: exposure 0.3 μmol/L; for activity at 1 µM: exposure 1 μmol/L; for activity at 3 µM: exposure 3 μmol/L; for activity at 10 µM: exposure 10 μmol/L; for activity at 0.03 µM: exposure 0.03 μmol/L; for activity at 0.1 µM: exposure 0.1 μmol/L; for inhibition at 0.3 µM / inhibition at 10 µM: HEK293, read-out: Aβ40 inhibitory rate (in terms of the inhibitory rate, from secretion rate); for inhibition at 0.3 µM: exposure concentration 0.3 μM; for inhibition at 10 µM: exposure concentration 10 μM
Excerpt: HEK293 cells (ATCC) were transfected with APP C99 pcDNA3.1 (the nucleotide sequence of its coding region is shown in SEQ ID NO: 1) (J. Biol. Chem., 2003, 278, 49448-49458). Cell strains (C99 cells) confirmed to stably express APP-C99 (artificial APP fragment that originally lacked a polypeptide portion to be cleaved by α- or β-secretase at the first stage in the two-stage reaction of Aβ production from APP) were used to study the γ-secretase inhibitory effects of four test substances (TLVM-5, TLVM-7, TLVM-8, and TLVM-9) in vitro.
as §1
The C99 cells were suspended at a concentration of 5×10^4 cells/ml in the medium. The suspension was added at a concentration of 1 ml (5×10^4 cells)/well to a 24-well collagen plate (Akita Sumitomo Bakelite Co., Ltd.) and cultured for 3 days. Then, the medium in the wells was removed, and the wells were washed with a medium (1 ml/well). The medium was removed, and a fresh medium was then added thereto at a concentration of 0.4 ml/well. The cells were exposed to the test substances and positive controls and incubated for 24 hours, and the culture supernatants were collected. The positive controls used were L-685,458 (CALBIOCHEM) and Boc-Leu-Val-Met-Leu-OMe (hereinafter, referred to as LVML-1) disclosed in Example 1 of Patent Document 1 (WO03/091278). The exposure concentrations were set to four concentrations, 0.3, 1, 3, and 10 μmol/L, for all the test substances and the positive controls. The concentrations of Aβ (1-40) and Aβ (1-42) in the culture supernatants were measured using Human Amyloid β (1-40) (N) Assay Kit (L)-IBL and Human Amyloid β (1-42) (N) Assay Kit (L)-IBL (Immuno-Biological Laboratories, Co., Ltd.). The amounts of Aβ (1-40) and Aβ (1-42) secreted were calculated by subtracting the concentrations of Aβ (1-40) and Aβ (1-42) originally contained in the medium before the C99 cell inoculation, from the measured concentrations thereof, respectively. Moreover, when the Aβ secretion rate of a negative control (5% DMSO-containing medium, resulting in 1% DMSO at the final concentration) is defined as 100%, Aβ secretion rates at each concentration of the test substances and the positive controls were calculated.
The TLVM-5, TLVM-7, TLVM-8, and TLVM-9 confirmed in Example 8 to have strong inhibitory activities against γ-secretase activities were subjected to an additional experiment at low concentrations (exposure concentrations were set to three concentrations, […], for the test substances and to four concentrations, 0.1, 0.3, 1, and 3 μmol/L, for the positive control).
Moreover, Aβ secretion rates at two concentrations of the test substance that bracket the concentration at which Aβ secretion was inhibited by 50% (IC50) were used to calculate IC50 according to the following equation: IC50:10^[LOG(A/B)*(50−C)/(D−C)+LOG(B)],wherein
A: of the two points that bracket 50% inhibition, the higher concentration of the test substance,
B: of the two points that bracket 50% inhibition, the lower concentration of the test substance,
C: secretion rate (%) at the concentration B, and
D: secretion rate (%) at the concentration A.

[1] = Example 8, 24 h, negative control = 100%, read-out: Aβ (1-40) secretion rate of C99 cells
[2] = Example 8, 24 h, read-out: Aβ (1-42) secretion rate of C99 cells
[3] = Example 8, 24 h, read-out: Aβ [(1-40) + (1-42)] secretion rate of C99 cells
[4] = Example 8, 24 h, read-out: Aβ (1-40) secretion rate of C99 cells
[5] = Example 9 (low concentrations), read-out: Aβ (1-40) secretion rate of C99 cells
[6] = Example 9, read-out: Aβ (1-42) secretion rate of C99 cells
[7] = Example 9, read-out: Aβ [(1-40) + (1-42)] secretion rate of C99 cells
[8] = Example 9, read-out: Aβ (1-40) secretion rate of C99 cells

Compound	Cell viability of C99 cells (C99 cells; exposure 0.3 μmol/L) [%]	Cell viability of C99 cells (C99 cells; exposure 1 μmol/L) [%]	Cell viability of C99 cells (C99 cells; exposure 3 μmol/L) [%]	Cell viability of C99 cells (C99 cells; exposure 10 μmol/L) [%]	Cell viability of C99 cells (C99 cells; exposure 30 μmol/L) [%]	Cell viability of C99 cells (C99 cells; exposure 100 μmol/L) [%]	activity at 0.3 µM (γ-secretase; [3]) [%]	activity at 1 µM (γ-secretase; [4]) [%]	activity at 1 µM (γ-secretase; [3]) [%]	activity at 3 µM (γ-secretase; [4]) [%]	activity at 3 µM (γ-secretase; [3]) [%]	activity at 10 µM (γ-secretase; [3]) [%]	activity at 0.03 µM (γ-secretase; [5]) [%]	activity at 0.03 µM (γ-secretase; [6]) [%]	activity at 0.03 µM (γ-secretase; [7]) [%]	activity at 0.1 µM (γ-secretase; [8]) [%]	activity at 0.1 µM (γ-secretase; [6]) [%]	activity at 0.1 µM (γ-secretase; [7]) [%]	activity at 0.3 µM (γ-secretase; [8]) [%]	activity at 0.3 µM (γ-secretase; [6]) [%]	other results
CSCCC(NC(=O)C(NC(=O)C(CC(C)C)CC(O)C(NC(=O)OC(C)(C)C)C(C)O)C(C)C)C(=O)NCc1ccc(F)cc1 [TLVM-9, [5S-(tert-butoxycarbonylamino)-4R,6R-dihydroxy-2R-(2-methylpropyl)heptanoyl]-L-valyl-L-methionine 4-fluorobenzylamide]	104	106	106	105	93	57	15	8	8	5	7	3	94	97	94	32	67	33	17	49	activity at 0.3 µM (γ-secretase; [1]): ≤ 24%; activity at 0.3 µM (γ-secretase; [2]): 2%; activity at 1 µM (γ-secretase; [2]): 11%; activity at 3 µM (γ-secretase; [2]): 37%; activity at 10 µM (γ-secretase; [4]): ≤ 3%; activity at 10 µM (γ-secretase; [2]): 0%; activity at 0.3 µM (γ-secretase; [7]): 18%; inhibition at 0.3 µM (γ-secretase): ≥ 76%; inhibition at 10 µM (γ-secretase): ≥ 97%
CSCCC(NC(=O)C(NC(=O)C(CC(C)C)CC(O)C(NC(=O)OC(C)(C)C)C(C)O)C(C)C)C(=O)NCc1ccccc1 [TLVM-5, [5S-(tert-butoxycarbonylamino)-4R,6R-dihydroxy-2R-(2-methylpropyl)heptanoyl]-L-valyl-L-methionine benzylamide]	102	109	112	104	82	46	14	5	8	4	7	6	100	131	101	39	74	40	15	43	activity at 10 µM (γ-secretase; [4]): ≤ 3%; activity at 0.3 µM (γ-secretase; [7]): 16%; inhibition at 0.3 µM (γ-secretase): ≥ 76%; inhibition at 10 µM (γ-secretase): ≥ 97%
CSCCC(NC(=O)C(NC(=O)C(CC(C)C)CC(O)C(NC(=O)OC(C)(C)C)C(C)O)C(C)C)C(=O)NC(C)c1ccccc1 [TLVM-8, [5S-(tert-butoxycarbonylamino)-4R,6R-dihydroxy-2R-(2-methylpropyl)heptanoyl]-L-valyl-L-methionine (S)-α-methylbenzylamide]	101	102	101	98	91	8	7	1	1	2	5	1	53	71	54	16	52	17	7	33	activity at 0.3 µM (γ-secretase; [2]): 7%; activity at 1 µM (γ-secretase; [2]): 11%; activity at 3 µM (γ-secretase; [2]): 61%; activity at 10 µM (γ-secretase; [2]): 0%; activity at 0.3 µM (γ-secretase; [7]): 8%; inhibition at 0.3 µM (γ-secretase): ≥ 76%; inhibition at 10 µM (γ-secretase): ≥ 97%
CCCCNC(=O)C(CCSC)NC(=O)C(NC(=O)C(CC(C)C)CC(O)C(NC(=O)OC(C)(C)C)C(C)O)C(C)C [TLVM-7, [5S-(tert-butoxycarbonylamino)-4R,6R-dihydroxy-2R-(2-methylpropyl)heptanoyl]-L-valyl-L-methionine n-butylamide]	92	105	96	102	91	96	23	8	10	1	4	2	124	156	126	42	94	44	13	33	activity at 0.3 µM (γ-secretase; [1]): ≤ 24%; activity at 0.3 µM (γ-secretase; [2]): 15%; activity at 1 µM (γ-secretase; [2]): 55%; activity at 3 µM (γ-secretase; [2]): 67%; activity at 10 µM (γ-secretase; [4]): ≤ 3%; activity at 10 µM (γ-secretase; [2]): 0%; activity at 0.3 µM (γ-secretase; [7]): 14%; inhibition at 0.3 µM (γ-secretase): ≥ 76%; inhibition at 10 µM (γ-secretase): ≥ 97%
